Here are results for nine compounds from patent US10092613B2 (NATUREX, S.A., priority 2008, dated 2018).

As a reminder, the Cmax is the peak of the concentration-time curve. A word on the AUC: it is the area under the concentration-time curve, a measure of exposure. The Tmax is the time at which the peak concentration occurs.

Each structure is given as a SMILES string.

A short description of series [1]: Plasma pharmacokinetics of CGA and metabolites after 400 mg green coffee extract, ten volunteers. The series is classed as in vivo, human. The settings on record: for contribution to total phenolics in plasma: after green coffee extract consumption; for Cmax / AUC / Tmax: both sexes, human, plasma, po, 400 mg, 400 mg green coffee extract oral, mean ± SD, n = 10; for AUC: read-out: AUC; for Tmax: read-out: Tmax. The source says:
In a further phase of the study, ten non-smoker volunteers (22-55 y), five male and five female, were recruited. […] They were asked to eat only animal foods, refined cereal foods and artificial beverages. […] Blood samples were collected into heparin-containing tubes. Baseline blood aliquots were used to determine hematocrit and hemoglobin levels by standard methods. Plasma samples were obtained by centrifugation of the blood samples immediately after being drawn. Urine samples were also collected at baseline interval (minus 2-0 h) and at intervals of 0-2 h; 2-4 h; 4-6 h and 6-8 h after coffee consumption into appropriate plastic containers. Total urine volume was measured for each collection period. Plasma and urine aliquots for determination of CGA were acidified with HCl and kept frozen in liquid nitrogen until analyses. Urine aliquots for determination of creatinine were acidified with HCl and kept at −20° C. until analyses.
(§1) Results of CGA and phenolic acids in urine were normalized by creatinine excretion.

The nature of series [2]: Urinary excretion of CGA and metabolites after 400 mg green coffee extract, ten volunteers. The format is in vivo, human. The protocol:
In a further phase of the study, ten non-smoker volunteers (22-55 y), five male and five female, were recruited. Subjects were instructed to avoid consumption of phenolic-containing foods during the 48 h prior to the study. They were asked to eat only animal foods, refined cereal foods and artificial beverages. On the day of the study, after 10-12 h overnight fasting, an I.V. catheter was inserted into the antecubital vein and a baseline heparinized blood sample was obtained. […] Blood samples were collected into heparin-containing tubes. Baseline blood aliquots were used to determine hematocrit and hemoglobin levels by standard methods. Plasma samples were obtained by centrifugation of the blood samples immediately after being drawn. Urine samples were also collected at baseline interval (minus 2-0 h) and at intervals of 0-2 h; 2-4 h; 4-6 h and 6-8 h after coffee consumption into appropriate plastic containers. Total urine volume was measured for each collection period. Plasma and urine aliquots for determination of CGA were acidified with HCl and kept frozen in liquid nitrogen until analyses. Urine aliquots for determination of creatinine were acidified with HCl and kept at −20° C. until analyses.
as §1

For `O=C(O)/C=C/c1ccc(O)c(O)c1` [Caffeic acid], in series [1], the “contribution to total phenolics in plasma” value (“contribution” below) amounted to 6.6%, the Cmax came to 1100 ± 900 nM, the area under the curve (AUC) was determined as 3.8 ± 3.2 µM·h and the Tmax is 3.6 ± 2.1 h.
For `COc1cc(/C=C/C(=O)O)ccc1O` [Ferulic acid] the same measures were 6.2%, 800 ± 300 nM, 3.6 ± 1.5 µM·h and 2.9 ± 1.8 h.
Take `O=C(O)c1cc(O)c(O)c(O)c1` [Gallic Acid]: the total urinary excretion amounted to 43.47 µmol in series [2] (subject 1, 0-8 h after consumption); 9.24 µmol in series [2] (subject 1, Baseline); 18.67 µmol in series [2] (subject 2, 0-8 h after consumption); 3.55 µmol in series [2] (subject 2, Baseline); 9.41 µmol in series [2] (subject 3, 0-8 h after consumption); 1.86 µmol in series [2] (subject 3, Baseline). For the same compound, the total urinary excretion was 7.98 µmol in series [2] (subject 4, 0-8 h after consumption); 0.70 µmol in series [2] (subject 4, Baseline); 25.45 µmol in series [2] (subject 5, 0-8 h after consumption); 10.19 µmol in series [2] (subject 5, Baseline); 10.57 µmol in series [2] (subject 6, Baseline); 14.03 µmol in series [2] (subject 7, 0-8 h after consumption). Moreover, the total urinary excretion in series [2] (subject 7, Baseline) stood at 0.25 µmol; in series [2] (subject 8, 0-8 h after consumption), 68.21 µmol; in series [2] (subject 8, Baseline) it was 6.79 µmol; in series [2] (subject 9, 0-8 h after consumption) it was 57.69 µmol; in series [2] (subject 9, Baseline), 1.68 µmol; in series [2] (subject 10, 0-8 h after consumption), 112.22 µmol. Besides, the total urinary excretion in series [2] (subject 10, Baseline) turned out to be 25.25 µmol.
Regarding `COc1ccc(/C=C/C(=O)O)cc1O` [Isoferulic acid], in series [1], the “contribution” value turned out to be 6.1%, the maximum concentration (Cmax) is 900 ± 200 nM, the AUC came out at 3.5 ± 1.9 µM·h and the Tmax was 2.9 ± 1.8 h.
Turning to `O=C(O)c1ccc(O)c(O)c1` [Protocatechuic acid], in series [2] (human, in vivo), the identification in urine entry is “not identified”.
Regarding `O=C(O)c1ccccc1` [benzoic acid], the identification in urine result in series [2] (before or after the extract consumption) is “not identified”.
As to `COc1cc(CCC(=O)O)ccc1O` [dihydroferulic acid], the identification in urine entry in series [2] (human, in vivo) is given as “not identified”.
On to `O=C(O)CNC(=O)c1ccccc1` [hippuric acid], for which the identification in urine entry in series [2] (human, in vivo) is listed as “not identified”.
Regarding `O=C(O)/C=C/c1ccc(O)cc1` [p-coumaric acid], in series [1], the “contribution” value was determined as 1.4%, the Cmax is 400 ± 30 nM, the AUC was found to be 0.8 ± 0.2 µM·h and the time to peak (Tmax) came to 2.5 ± 1.8 h.
